Measured values reported in ChEMBL document CHEMBL3045850, “Effects of Pyridalyl, a Novel Insecticidal Agent, on Cultured Sf9 Cells” (2005).
Activity calls are given as the source filed them. The rule behind the calls is not given here.

Columns and labels:
Spodoptera litura [1] = experiment: Insecticidal activity against Spodoptera litura assessed as mortality at 500 mg/L after 6 days; format: functional; conditions: 144 h
Sf9 [2] = experiment: Cytotoxicity against Spodoptera frugiperda (fall armyworm) Sf9 cells at 10 uM after 72 hr by trypan blue dye exclusion test; format: functional, cell-based
Sf9 [3] = experiment: Cytotoxicity against Spodoptera frugiperda (fall armyworm) Sf9 cells at 0.1 to 1 uM after 72 hr by trypan blue dye exclusion test; format: functional, cell-based
Sf9 [4] = experiment: Cytotoxicity against Spodoptera frugiperda (fall armyworm) Sf9 cells at 1 to 10 uM after 72 hr by trypan blue dye exclusion test; format: functional, cell-based
Sf9 [5] = experiment: Cytotoxicity against Spodoptera frugiperda (fall armyworm) Sf9 cells at 0.1 to 10 uM after 72 hr by trypan blue dye exclusion test; format: functional, cell-based
Sf9 [6] = experiment: Induction of cell growth in Spodoptera frugiperda (fall armyworm) Sf9 cells at 10 uM after 72 hr by trypan blue dye exclusion test; format: functional, cell-based
Spodoptera litura [7] = experiment: Inhibition of mitochondrial respiration in Spodoptera litura mitochondria assessed as oxygen consumption at 20 uM at 3:1 minute after addition of 0.2 mM of rotenone and 0.1 mM of succinate (reference value: 0.5%); format: functional; parameters: scale not given: the % may be the effect or the level left
Spodoptera litura [8] = experiment: Inhibition of mitochondrial respiration in Spodoptera litura mitochondria assessed as oxygen consumption at 20 uM at 2:1 minute after addition of 0.1 mM of ADP (reference value: 54.4%); format: functional; parameters: scale not given: the % may be the effect or the level left
Spodoptera litura [9] = experiment: Inhibition of mitochondrial respiration in Spodoptera litura mitochondria assessed as oxygen consumption at 20 uM at 1:1 minute after addition of 0.1 mM of ADP (reference value: 12.2%); format: functional; parameters: scale not given: the % may be the effect or the level left
Sf9 [10] = experiment: Cytotoxicity against Spodoptera frugiperda (fall armyworm) Sf9 cells assessed as formation of granular structures at 1 to 10 uM after 72 hr by microscopic analysis; format: functional, cell-based
Sf9 [11] = experiment: Cytotoxicity against Spodoptera frugiperda (fall armyworm) Sf9 cells at 0.01 to 10 uM after 72 hr by trypan blue dye exclusion test; format: functional, cell-based
Sf9 [12] = experiment: Cytotoxicity against Spodoptera frugiperda (fall armyworm) Sf9 cells at 5 uM after 72 hr by trypan blue dye exclusion test; format: functional, cell-based

SMILES: FC(F)(F)c1ccc(OCCCOc2ccc(OCC=C(Cl)Cl)cc2)nc1
- mortality at 500 µg/mL (Spodoptera litura [1]): 0%
- Activity (Sf9 [2]): inactive

SMILES: O=c1[nH]cc(F)c(=O)[nH]1
- Activity (Sf9 [3]): Active

SMILES: CC[C@H]1/C=C/C=C/C[C@@H](C)[C@H](O)[C@@](C)(O)C(=O)[C@@H](C)[C@H](O)[C@@H](C)C(=O)[C@@H](C)[C@H](O)[C@@H](C)/C=C/C(=O)O[C@@H]2[C@H](C)[C@H](CC1)O[C@]1(CC[C@H](C)[C@H](C[C@@H](C)O)O1)[C@H]2C
- Activity (Sf9 [4]): Active

SMILES: CC(COc1cc(Cl)c(OCCCOc2ccc(Cl)cc2)c(Cl)c1)=C(Cl)Cl
- mortality at 500 µg/mL (Spodoptera litura [1]): 0%
- Activity (Sf9 [2]): inactive

SMILES: CCOCn1c(-c2ccc(Cl)cc2)c(C#N)c(Br)c1C(F)(F)F
- Activity (Sf9 [5]): Active

SMILES: COP(=O)(NC(C)=O)SC (stereo unspecified)
- Activity (Sf9 [6]): Active

SMILES: FC(F)(F)c1ccc(OCCCOc2c(Cl)cc(OC/C(Cl)=C/Cl)cc2Cl)nc1
- mortality at 500 µg/mL (Spodoptera litura [1]): 0%
- Activity (Sf9 [2]): inactive

SMILES: COc1ccc(C[C@H]2NC[C@H](O)[C@H]2OC(C)=O)cc1
- Activity (Sf9 [2]): Active

SMILES: C=C(C)[C@H]1Cc2c(ccc3c2O[C@@H]2COc4cc(OC)c(OC)cc4[C@@H]2C3=O)O1
- Activity (Sf9 [4]): Active

SMILES: FC(F)(F)c1ccc(OCCCOc2c(Cl)cc(OCC=C(Cl)Cl)cc2Cl)nc1 [PYRIDALYL]
- Activity (Spodoptera litura [7]): 0.5%
- Activity (Spodoptera litura [8]): 53.3%
- Activity (Spodoptera litura [9]): 12.2%
- mortality at 500 µg/mL (Spodoptera litura [1]): 100%
- Activity (Sf9 [10]): Active
- Activity (Sf9 [11]): Active

SMILES: O=[N+]([O-])c1ccc(O)c([N+](=O)[O-])c1
- Activity (Sf9 [2]): Active

SMILES: ClC(Cl)=C(Cl)COc1cc(Cl)c(OCCCOc2ccc(Cl)cc2)c(Cl)c1
- mortality at 500 µg/mL (Spodoptera litura [1]): 0%
- Activity (Sf9 [2]): inactive

SMILES: CNC(=O)ON=C(C)SC
- Activity (Sf9 [6]): Active

SMILES: CC1(C)C(C=C(Cl)Cl)C1C(=O)OC(C#N)c1cccc(Oc2ccccc2)c1 (stereo unspecified)
- Activity (Sf9 [6]): Active

SMILES: C[C@@]1(CO)[C@H](O)CC[C@@]2(C)[C@H]1CC[C@H]1C[C@@H]3C[C@@]12CC[C@]3(O)CO
- Activity (Sf9 [12]): inactive

SMILES: ClC(Cl)=CCOc1cc(Cl)c(OCCCOc2ccc(Cl)cc2)c(Cl)c1
- mortality at 500 µg/mL (Spodoptera litura [1]): 100%
- Activity (Sf9 [2]): Active
